Measurements as given in ChEMBL document CHEMBL5154681, “Small Amphiphilic Peptides: Activity Against a Broad Range of Drug-Resistant Bacteria and Structural Insight into Membranolytic Properties” (J Med Chem, 2022).
In brackets after ≈: the same amount, converted by molar mass. Activity calls are given as the source filed them. The calls are words filed in the database; no cut-off is given here. Square brackets hold non-standard residues; d marks the D form. Peptide text beside a SMILES is read from it. Dip = N[C@H](C(=O)O)C(c1ccccc1)c1ccccc1; 2Nal = N[C@@H](Cc1ccc2ccccc2c1)C(=O)O

Legend:
[1] = system: Staphylococcus aureus; assay: Antibacterial activity against methicillin resistant Staphylococcus aureus ATCC BAA-1556 incubated for 24 hrs; type: functional
[2] = Proteolytic stability in human plasma at 100 uM incubated for 30 mins by Q-TOF LC/MS analysis relative to control; type: ADME, cell-free; conditions: read-out: Stability
[3] = Selectivity ratio of MIC for antibacterial activity against Klebsiella pneumoniae ATCC 13883 to MIC for antibacterial activity against carbapenem-resistant Klebsiella pneumoniae ATCC BAA-2470; type: functional
[4] = system: Staphylococcus aureus; assay: Bactericidal activity against methicillin resistant Staphylococcus aureus ATCC BAA-1556 assessed as reduction of bacterial growth at 4 times MIC by counting formed colonies; type: functional, organism-based; conditions: time <= 4.0 hrs, TDE = time-dependent effect
[5] = system: Lipid bilayer; assay: Membrano-lytic effect in bacterial inner membrane mimic DOPC/DOPG (7:3) large unilamellar vesicles assessed as calcein leakage measured upto 100 mins for every 10 mins by multimode microplate reader assay; type: cell membranes; conditions: dose 5-50 µg/ml, DDE = dose-dependent effect
[6] = system: Staphylococcus aureus; assay: Bactericidal activity against methicillin resistant Staphylococcus aureus ATCC BAA-1556 assessed as time required for complete reduction of bacterial growth at MIC by counting formed colonies; type: functional
[7] = system: Staphylococcus aureus; assay: Antibacterial activity against methicillin resistant Staphylococcus aureus ATCC BAA-1556 incubated for 24 hrs by microtiter plate method; type: functional; conditions: Staphylococcus aureus, ATCC BAA-1556, 24 h, read-out: MIC
[8] = system: Staphylococcus aureus; assay: Bactericidal activity against methicillin resistant Staphylococcus aureus ATCC BAA-1556 assessed as reduction of bacterial growth at MIC by counting formed colonies; type: functional, organism-based; conditions: time <= 4.0 hrs, TDE = time-dependent effect
[9] = system: Escherichia coli; assay: Antibacterial activity against Escherichia coli NDM-1-resistant ATCC BAA-2452 incubated for 24 hrs by microtiter plate method; type: functional
[10] = system: HepaRG; assay: Cytotoxicity against human HPRGC10 assessed as cell viability at 150 ug/ml incubated for 24 hrs by microplate spectrophotometer analysis method relative to control; type: functional; conditions: read-out: Activity
[11] = system: Escherichia coli; assay: Antibacterial activity against Escherichia coli ATCC 25922 incubated for 24 hrs; type: functional
[12] = system: Enterococcus faecalis; assay: Potency index, ratio of daptomycin MIC to test compound MIC for antibacterial activity against vancomycin resistant Enterococcus faecalis ATCC 51575; type: functional
[13] = system: Enterococcus faecalis; assay: Antibacterial activity against vancomycin-resistant Enterococcus faecalis ATCC 51575 incubated for 24 hrs by microtiter plate method; type: functional
[14] = system: Klebsiella pneumoniae; assay: Antibacterial activity against Klebsiella pneumoniae ATCC 13883 […] incubated for 24 hrs by microtiter plate method; type: functional
[15] = system: Escherichia coli; assay: Bactericidal activity against Escherichia coli ATCC BAA-2452 assessed as reduction of bacterial growth at MIC by counting formed colonies; type: functional, organism-based; conditions: time <= 4.0 hrs, TDE = time-dependent effect
[16] = system: Escherichia coli; assay: Antibacterial activity against Escherichia coli ATCC BAA-2452 assessed as loss of membrane fluid at 4 times of MIC incubated for 30 mins by FE-SEM analysis; type: functional, organism-based
[17] = system: Staphylococcus aureus; assay: Antibacterial activity against methicillin-resistant Staphylococcus aureus ATCC BAA-1556 assessed as membrane atrophy at 4 times of MIC incubated for 30 mins by FE-SEM analysis; type: functional, organism-based
[18] = system: Staphylococcus aureus; assay: Antibacterial activity against methicillin resistant Staphylococcus aureus ATCC BAA-1556 after 24 hrs in presence of 4.5 mM of KCl by microtiter plate method; type: functional
[19] = system: Staphylococcus aureus; assay: Antibacterial activity against methicillin-resistant Staphylococcus aureus ATCC BAA-1556 assessed as loss of membrane fluid at 4 times of MIC incubated for 30 mins by FE-SEM analysis; type: functional, organism-based
[20] = Selectivity ratio of MIC for antibacterial activity against Pseudomonas aeruginosa ATCC 10145 to MIC for antibacterial activity against imipenem-resistant Pseudomonas aeruginosa ATCC BAA-1744; type: functional
[21] = system: Escherichia coli; assay: Antibacterial activity against Escherichia coli ATCC BAA-2452 assessed as membrane atrophy at 4 times of MIC incubated for 30 mins by FE-SEM analysis; type: functional, organism-based
[22] = system: Staphylococcus aureus; assay: Bactericidal activity against methicillin resistant Staphylococcus aureus ATCC BAA-1556 assessed as time required for complete reduction of bacterial growth at 4 times MIC by counting formed colonies; type: functional
[23] = Hemolytic activity in human RBC assessed as hemolysis incubated for 2 hrs by spectrophotometer analysis; type: toxicity, cell-based, Erythrocyte; conditions: human red blood cells (erythrocytes)
[24] = system: Staphylococcus aureus; assay: Antibacterial activity against Staphylococcus aureus ATCC 29213 incubated for 24 hrs by microtiter plate method; type: functional; conditions: Staphylococcus aureus, ATCC 29213, read-out: MIC
[25] = system: Pseudomonas aeruginosa; assay: Antibacterial activity against Pseudomonas aeruginosa ATCC 27883 incubated for 24 hrs by microtiter plate method; type: functional; conditions: Pseudomonas aeruginosa, ATCC 27883, read-out: MIC
[26] = system: Pseudomonas aeruginosa; assay: Antibacterial activity against Pseudomonas aeruginosa ATCC 10145 incubated for 24 hrs by microtiter plate method; type: functional
[27] = system: Cell membrane; assay: Membrano-lytic effect in cytoplasmic membrane of Escherichia coli ATCC BAA-2452 assessed as disruption by measuring propidium iodide fluorescence incubated for 1 hr by FACscan flow cytometer analysis; conditions: DDE = dose-dependent effect
[28] = system: Staphylococcus aureus; assay: Antibacterial activity against methicillin resistant Staphylococcus aureus ATCC BAA-1556 after 24 hrs in presence of 2 mM of CaCl2 by microtiter plate method; type: functional
[29] = system: Cell membrane; assay: Membrano-lytic effect in cytoplasmic membrane of Escherichia coli ATCC BAA-2452 assessed as disruption by measuring propidium iodide fluorescence at MIC incubated for 1 hr by FACscan flow cytometer analysis
[30] = system: Escherichia coli; assay: Antibacterial activity against Escherichia coli ATCC 25922 after 24 hrs in presence of 4.5 mM of KCl at by microtiter plate method; type: functional
[31] = system: Escherichia coli; assay: Antibacterial activity against Escherichia coli ATCC 25922 assessed as reduction in microbial growth after 24 hrs in presence of 6 mM of NH4Cl at by microtiter plate method; type: functional
[32] = system: Bacillus cereus; assay: Antibacterial activity against Bacillus cereus ATCC 13061 incubated for 24 hrs by microtiter plate method; type: functional
[33] = Proteolytic stability in human plasma at 100 uM incubated for 24 hrs by Q-TOF LC/MS analysis relative to control; type: ADME, cell-free; conditions: read-out: Stability
[34] = system: Lipid bilayer; assay: Membrano-lytic effect in mammalian membrane mimic DOPC/cholesterol (10:1) large unilamellar vesicles assessed as calcein leakage measured at 50 microg/ml measured upto 100 mins for every 10 mins by multimode microplate reader assay; type: cell membranes; conditions: dose 50.0 µg/ml
[35] = system: Escherichia coli; assay: Antibacterial activity against Escherichia coli ATCC 25922 after 24 hrs in presence of 1 mM of MgCl2 at by microtiter plate method; type: functional
[36] = system: Escherichia coli; assay: Antibacterial activity against Escherichia coli ATCC 25922 incubated for 24 hrs by microtiter plate method; type: functional; conditions: Escherichia coli
[37] = system: Escherichia coli; assay: Antibacterial activity against Escherichia coli ATCC 25922 after 24 hrs in presence of 150 mM NaCl by microtiter plate method; type: functional
[38] = system: Escherichia coli; assay: Antibacterial activity against Escherichia coli ATCC 25922 after 24 hrs in presence of 2 mM CaCl2 at by microtiter plate method; type: functional
[39] = system: Streptococcus pneumoniae; assay: Antibacterial activity against multidrug resistant […] ATCC 700677 incubated for 24 hrs by microtiter plate method; type: functional

| Compound | MBC [1] [µg/mL] | remaining at 0.5 h, 100 µM [2] [%] | Ratio [3] | Activity [4] | Activity [5] | Activity [6] | MIC [7] [µg/mL] | Activity [8] | MIC [9] [µg/mL] | viability at 150 µg/mL [10] [%] | MBC [11] [µg/mL] | Ratio [12] | MIC [13] [µg/mL] | MIC [14] [µg/mL] | Activity [15] | Activity [16] | Activity [17] | MIC [18] [µg/mL] | Activity [19] | Ratio [20] | other results |
| --- | --- | --- | --- | --- | --- | --- | --- | --- | --- | --- | --- | --- | --- | --- | --- | --- | --- | --- | --- | --- | --- |
| N=C(N)NCCC[C@@H]1NC(=O)[C@H](CCCNC(=N)N)NC(=O)[C@H](CCCNC(=N)N)NC(=O)[C@H](Cc2ccc3ccccc3c2)NC(=O)[C@H](Cc2ccc3ccccc3c2)NC(=O)[C@H](Cc2ccc3ccccc3c2)NC(=O)[C@H](CCCNC(=N)N)NC1=O (cyclo(RRRR[2Nal][2Nal][2Nal])) | 6.2 (≈ 5.1 µM) | 82 | 2 | Tde | Dde | Active | 3.1 (≈ 2.55 µM) | Tde | 12.5 (≈ 10.3 µM) | 61 | 100 (≈ 82.2 µM) | 2 | 3.1 (≈ 2.55 µM) | 50 (≈ 41.1 µM) | Tde | Active | Active | 3.1 | Active | 2 | Activity [21]: Active; Activity [22]: Active; HC50 at 2 h [23]: 80 µg/mL; MIC [24]: 3.1 µg/mL (≈ 2.55 µM); MIC [25]: 12.5 µg/mL (≈ 10.3 µM); MIC [26]: 25 µg/mL (≈ 20.6 µM); Activity [27]: Dde; MIC [28]: 3.1 µg/mL; Activity [29]: 50%; MIC [30]: 25 µg/mL; MIC [31]: 25 µg/mL; MIC [32]: 3.1 µg/mL (≈ 2.55 µM); remaining at 24 h, 100 µM [33]: 60%; Activity [34]: 14%; MIC [35]: 25 µg/mL; MIC ([36]; ATCC 25922, 24 h, read-out: MIC): 25 µg/mL (≈ 20.6 µM); MIC [37]: 25 µg/mL; MIC [38]: 25 µg/mL; MIC [39]: 12.5 µg/mL (≈ 10.3 µM) |
| N=C(N)NCCC[C@@H]1NC(=O)[C@H](CCCNC(=N)N)NC(=O)[C@H](CCCNC(=N)N)NC(=O)[C@H](C(c2ccccc2)c2ccccc2)NC(=O)[C@H](C(c2ccccc2)c2ccccc2)NC(=O)[C@H](C(c2ccccc2)c2ccccc2)NC(=O)[C@H](CCCNC(=N)N)NC1=O (cyclo(RRRR[Dip][Dip][Dip])) | 6.2 (≈ 4.79 µM) | 86 | 2 | Tde | Dde | Active | 3.1 (≈ 2.39 µM) | Tde | 12.5 (≈ 9.66 µM) | 61 | 25 (≈ 19.3 µM) | 2 | 6.2 (≈ 4.79 µM) | 50 (≈ 38.6 µM) | Tde | Active | Active | 3.1 | Active | 2 | Activity [21]: Active; Activity [22]: Active; HC50 at 2 h [23]: 70 µg/mL; MIC [24]: 3.1 µg/mL (≈ 2.39 µM); MIC [25]: 12.5 µg/mL (≈ 9.66 µM); MIC [26]: 25 µg/mL (≈ 19.3 µM); Activity [27]: Dde; MIC [28]: 3.1 µg/mL; Activity [29]: 50%; MIC [30]: 12.5 µg/mL; MIC [31]: 12.5 µg/mL; MIC [32]: 3.1 µg/mL (≈ 2.39 µM); remaining at 24 h, 100 µM [33]: 65%; Activity [34]: 18%; MIC [35]: 12.5 µg/mL; MIC ([36]; ATCC 25922, read-out: MIC): 12.5 µg/mL (≈ 9.66 µM); MIC [37]: 12.5 µg/mL; MIC [38]: 12.5 µg/mL; MIC [39]: 25 µg/mL (≈ 19.3 µM) |
